Experiments:
Format in all cases: biochemical
[1] = target: T1, pancreatic lipase (Homo sapiens, UniProt P16233); experiment: Cleavage of NAG by pancreatic lipase; settings: for Increase in the absorption at 481 nm: Pancreatic lipase, 60 min, NAG 0.05 mg/ml
T1 sequence (P16233 17-465): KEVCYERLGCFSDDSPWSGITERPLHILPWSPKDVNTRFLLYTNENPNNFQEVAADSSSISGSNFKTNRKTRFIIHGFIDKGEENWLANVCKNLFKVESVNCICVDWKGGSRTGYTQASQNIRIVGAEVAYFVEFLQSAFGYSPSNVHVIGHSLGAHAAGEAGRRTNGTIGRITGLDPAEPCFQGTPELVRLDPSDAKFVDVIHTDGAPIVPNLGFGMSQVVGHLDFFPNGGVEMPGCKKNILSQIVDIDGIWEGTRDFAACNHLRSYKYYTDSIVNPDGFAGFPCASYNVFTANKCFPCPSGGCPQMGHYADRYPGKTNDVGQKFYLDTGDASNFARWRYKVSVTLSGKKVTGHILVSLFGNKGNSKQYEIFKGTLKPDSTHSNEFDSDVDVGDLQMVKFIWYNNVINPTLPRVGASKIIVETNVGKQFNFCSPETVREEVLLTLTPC

[2] = test system: bacterial lipase; experiment: Cleavage of NAG by bacterial lipase; settings: for Increase in the absorption at 481 nm: Bacterial lipase, 60 min, NAG 0.05 mg/ml
[3] = target: T2, LPL from rat adipocytes (Rattus norvegicus, UniProt Q06000); experiment: Cleavage of NAG by LPL; settings: for Increase in the absorption at 481 nm: 60 min, NAG 0.05 mg/ml
T2 construct: 75 μg of partially purified LPL from rat adipocytes; from tissue; host or cells: rat adipocytes
T2 sequence (Q06000 28-474): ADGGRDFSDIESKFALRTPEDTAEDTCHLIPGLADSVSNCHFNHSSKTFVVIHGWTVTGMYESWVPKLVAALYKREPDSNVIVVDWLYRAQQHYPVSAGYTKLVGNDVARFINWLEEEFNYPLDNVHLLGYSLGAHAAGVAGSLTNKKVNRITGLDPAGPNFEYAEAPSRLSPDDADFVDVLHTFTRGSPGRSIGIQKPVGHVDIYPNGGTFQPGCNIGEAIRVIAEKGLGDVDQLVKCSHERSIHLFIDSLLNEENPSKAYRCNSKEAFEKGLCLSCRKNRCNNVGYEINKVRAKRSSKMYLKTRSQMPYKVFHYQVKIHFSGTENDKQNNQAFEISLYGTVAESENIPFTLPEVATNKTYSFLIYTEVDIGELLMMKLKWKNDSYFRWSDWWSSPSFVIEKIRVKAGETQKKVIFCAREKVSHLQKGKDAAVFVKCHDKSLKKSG

[4] = test system: PLA2 from snake venom; experiment: Cleavage of NAG by PLA2; settings: 60 min, NAG 0.05 mg/ml

Structure (SMILES): O=C(CCCCCCCCCCCNc1ccc([N+](=O)[O-])c2nonc12)OCC(O)CO (stereo not shown) [Compound (3)]
- Increase in the absorption at 481 nm ([1]; enzyme 10 arb. units): 9 ± 2 arb. units
- Increase in the absorption at 481 nm ([1]; enzyme 20 arb. units): 14 ± 4 arb. units
- Increase in the absorption at 481 nm ([1]; enzyme 50 arb. units): 39 ± 7 arb. units
- Increase in the absorption at 481 nm ([1]; enzyme 75 arb. units): 64 ± 10 arb. units
- Increase in the absorption at 481 nm ([1]; enzyme 100 arb. units): 92 ± 14 arb. units
- Increase in the absorption at 481 nm ([1]; enzyme 150 arb. units): 140 ± 18 arb. units
- Increase in the absorption at 481 nm ([1]; enzyme 200 arb. units): 188 ± 21 arb. units
- Increase in the absorption at 481 nm ([1]; enzyme 250 arb. units): 234 ± 30 arb. units
- Increase in the absorption at 481 nm ([1]; enzyme 300 arb. units): 265 ± 34 arb. units
- Increase in the absorption at 481 nm ([1]; enzyme 400 arb. units): 286 ± 32 arb. units
- Activity relative to HSL ([1]; pancreatic lipase, conditions optimized for HSL): 1%
- Increase in the absorption at 481 nm ([2]; enzyme 10 arb. units): 36 ± 7 arb. units
- Increase in the absorption at 481 nm ([2]; enzyme 20 arb. units): 81 ± 10 arb. units
- Increase in the absorption at 481 nm ([2]; enzyme 50 arb. units): 148 ± 18 arb. units
- Increase in the absorption at 481 nm ([2]; enzyme 75 arb. units): 238 ± 29 arb. units
- Increase in the absorption at 481 nm ([2]; enzyme 100 arb. units): 341 ± 39 arb. units
- Increase in the absorption at 481 nm ([2]; enzyme 150 arb. units): 467 ± 57 arb. units
- Increase in the absorption at 481 nm ([2]; enzyme 200 arb. units): 748 ± 70 arb. units
- Increase in the absorption at 481 nm ([2]; enzyme 250 arb. units): 904 ± 83 arb. units
- Increase in the absorption at 481 nm ([2]; enzyme 300 arb. units): 1056 ± 143 arb. units
- Increase in the absorption at 481 nm ([2]; enzyme 400 arb. units): 1270 ± 187 arb. units
- Activity relative to HSL ([2]; bacterial lipase, conditions optimized for HSL): 25%
- Activity relative to HSL ([3]; conditions optimized for HSL): ~70%
- Increase in the absorption at 481 nm ([3]; enzyme 10 arb. units): 105 ± 14 arb. units
- Increase in the absorption at 481 nm ([3]; enzyme 20 arb. units): 187 ± 17 arb. units
- Increase in the absorption at 481 nm ([3]; enzyme 50 arb. units): 489 ± 31 arb. units
- Increase in the absorption at 481 nm ([3]; enzyme 75 arb. units): 773 ± 56 arb. units
- Increase in the absorption at 481 nm ([3]; enzyme 100 arb. units): 948 ± 72 arb. units
- Increase in the absorption at 481 nm ([3]; enzyme 150 arb. units): 1487 ± 132 arb. units
- Increase in the absorption at 481 nm ([3]; enzyme 200 arb. units): 1952 ± 173 arb. units
- Increase in the absorption at 481 nm ([3]; enzyme 250 arb. units): 2638 ± 213 arb. units
- Increase in the absorption at 481 nm ([3]; enzyme 300 arb. units): 2945 ± 250 arb. units
- Increase in the absorption at 481 nm ([3]; enzyme 400 arb. units): 3512 ± 288 arb. units
- Increase in the absorption at 481 nm ([4]; PLA2, enzyme 10 arb. units): 1 ± 1 arb. units
- Increase in the absorption at 481 nm ([4]; PLA2, enzyme 20 arb. units): 3 ± 2 arb. units
- Increase in the absorption at 481 nm ([4]; PLA2, enzyme 50 arb. units): 5 ± 1 arb. units
- Increase in the absorption at 481 nm ([4]; PLA2, enzyme 75 arb. units): 8 ± 2 arb. units
- Increase in the absorption at 481 nm ([4]; PLA2, enzyme 100 arb. units): 10 ± 2 arb. units
- Increase in the absorption at 481 nm ([4]; PLA2, enzyme 150 arb. units): 26 ± 6 arb. units
- Increase in the absorption at 481 nm ([4]; PLA2, enzyme 200 arb. units): 35 ± 9 arb. units
- Increase in the absorption at 481 nm ([4]; PLA2, enzyme 250 arb. units): 46 ± 12 arb. units
- Increase in the absorption at 481 nm ([4]; PLA2, enzyme 300 arb. units): 54 ± 9 arb. units
- Increase in the absorption at 481 nm ([4]; PLA2, enzyme 400 arb. units): 75 ± 11 arb. units
